# Article PMC9663578, “A fluorogenic probe for predicting treatment response in non-small cell lung cancer with EGFR-activating mutations” (Nature Communications, 2022)
# Several values for one entry are separate records, joined by “and”; a condition that tells them apart may be missing. Identical values can stand only once.
# Legend:
# BSA = BSA (Bos taurus, UniProt P02769); experiment: Fluorescence response of HX103 with BSA (control protein); type: binding; settings: Fig. 2d, n=1-3
# MTT cytotoxicity assay = type: cell-based; settings: human, A549 cells, EGFR wild-type, n=3
# Method: The cytotoxicity of the tested compounds against selected cell lines was measured by 3-(4,5-dimethylthiazol-2-yl)-2,5-diphenl tetrazolium bromide (MTT) assay. Briefly, cells (3000 per well) were plated in 96-well plate for 24 h and 100 µL of medium with di fferent concentrations of the tested compounds was added to each well for 48 h. Then 20 μL of MTT (5 mg/mL, Sigma-Aldrich) was added and incubate at 37 ℃ for 4 h, resulting the formation of the formazan crystal. The formed formazan crystal was dissolved with 150 μL of DMSO after removing the medium. The absorbance of each well was measured at 570 nm wavelength. The inhibition rate was calculated by the formula: (OD control group - OD treated group)/OD control group ×100%. The experiments were repeated at least three times. The IC50 values were determined by plotting a log (inhibitor) vs. normalized response (Variable slope) dose-response curve generated using GraphPad Prism […]
# Immunohistochemistry staining
# The obtained tumor tissues were sectioned into about 3 µm thickness layers. The general protocol of immunohistochemistry (IHC) was applied for the experiment. Firstly, the tissue slices were deparaffinized in xylene before immersion in 100% ethanol, followed by antigen repair. […]
# [1] = system: biopsy samples from NSCLC patients; experiment: HX103-based multicolor FACS, biopsy samples; type: cell-based, human
# EGFR L858R = molecular target: T1, EGFR L858R (Homo sapiens, UniProt P00533, L858R); experiment: Fluorescence turn-on response / titration of HX103 with recombinant EGFR;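 for Fluorescence intensity at 570 nm: 100% is HX103 fluorescence with wild-type EGFR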;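 for all read-outs here: fluorescence of the probe measured with recombinant EGFR L858R in PBS carrying 0.1% DMSO, excitation at 440 nm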; type: binding; settings: for Fluorescence intensity, L858R: Fig. 2c; for Fluorescence response of HX103 to EGFR L858R: Supplementary Fig. 2f
# T1 construct: EGFR L858R (amino acids 668–1210, #PR7447A); purchased Thermo Fisher PR7447A
# Method: (d) Fluorescence spectra change of HX103 (5 µ M) with increasing concentration of EGFR L858R
# (e) Fluorescence spectra change of HX103 (5 µ M ) with
# increasing concentration of EGFR 19del (0 to 6 µM) in PBS buffer. (f) Titration curve of HX103
# (5 µM) with increasing concentration of EGFRs (0 to 6 µM). The apparent binding affinity (Kd)
# The fluorescence titration curve was fitted on one -
# site specific binding model. I and I0 represent the intensities of HX103 at 570 nm in the presence
# and absence of protein. Data represent average val ues ± SD, n = 3 independent experiments per
# dissolved in dimethyl sulfoxide (DMSO) to obtain stock solutions (10 mM). The prepared stock
# solution was diluted in sodium phosphate buffer (PBS, 1 M, pH=7.4) to obtain the desired final
# concentration solution, containing 0.1% (v/v) DMSO as a cosolvent.
# and emission fluorescence spectra of the solution before/after addition o f different concentration
# Data analysis：The obtained fluorescence intensity at 570 nm (Excitation wavelength was 440
# nm) in each sample was normalized by using the fluorescence intensity of HX103 in the presence
# of EGFR. Specifically, the fluorescence intensity of HX103 in the presence of EGFR wild-type
# was set at 100% to normalized that of the remaining samples.
# [2] = Fig. 6d, Mutation, average over patients
# [3] = Fig. 6d, Mutation, one value per patient
# [4] = Fig. 6d, WT, average over patients
# [5] = Fig. 6d, WT, one value per patient
# Chain of BSA (P02769 25-607): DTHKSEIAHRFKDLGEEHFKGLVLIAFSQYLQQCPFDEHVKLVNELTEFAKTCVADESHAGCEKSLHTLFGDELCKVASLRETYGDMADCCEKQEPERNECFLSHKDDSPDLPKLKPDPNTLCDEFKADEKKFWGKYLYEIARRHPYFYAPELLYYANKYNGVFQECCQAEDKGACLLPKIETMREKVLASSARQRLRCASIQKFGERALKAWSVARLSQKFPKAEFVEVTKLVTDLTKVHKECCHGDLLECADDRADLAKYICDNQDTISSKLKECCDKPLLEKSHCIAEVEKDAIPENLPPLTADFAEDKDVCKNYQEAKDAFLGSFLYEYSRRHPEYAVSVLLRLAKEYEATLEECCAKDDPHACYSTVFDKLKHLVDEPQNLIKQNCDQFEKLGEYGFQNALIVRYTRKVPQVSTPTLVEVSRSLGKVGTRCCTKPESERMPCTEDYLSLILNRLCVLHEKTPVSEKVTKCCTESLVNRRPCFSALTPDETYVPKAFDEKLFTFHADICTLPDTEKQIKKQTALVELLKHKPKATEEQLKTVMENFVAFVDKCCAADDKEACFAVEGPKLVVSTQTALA
smiles,measurement,setting,value
COc1cc2c(Nc3ccc(F)c(Cl)c3)ncnc2cc1OCCCNc1ccc(S(=O)(=O)N(C)C)c2nonc12 [HX103],Fluorescence intensity at 570 nm,BSA,39.1473 and 21.3173 and 35.8927
same,IC50 at 48 h,MTT cytotoxicity assay,18 µM
same,"mean ratio of EGFR(+)HX103(+), responders","[1]; CR or PR, n = 9",43.5 ± 2.8%
same,"mean ratio of HX103(+), responders","[1]; CR or PR, n = 9",54.1 ± 3.3%
same,EGFR(+) HX103 (+) (%) AVE,"[1]; Fig. 6f, CR/PR, average",43.5167%
same,HX103 (+) (%) AVE,"[1]; Fig. 6f, CR/PR, average",54.1%
same,EGFR(+) HX103 (+) (%) AVE,"[1]; Fig. 6f, SD/PD, average",9.47%
same,HX103 (+) (%) AVE,"[1]; Fig. 6f, SD/PD, average",17.0025%
same,EGFR(+) HX103 (+) (%),"[1]; Fig. 6g, Patient (No. 3)",26.16%
same,EGFR(+) HX103 (+) (%),"[1]; Fig. 6h, Patient (No. 7)",34.2%
same,HX103(+) (%),"[1]; Fig. 6h, Patient (No. 7)",51.5%
same,EGFR(+) HX103 (+) (%) AVE,[1]; [2],34.0833%
same,HX103 (+) (%) AVE,[1]; [2],48.2347%
same,EGFR(+) HX103 (+) (%),[1]; [3],47.7% and 46.42% and 26.16% and 37.95% and 54.7% and 42.61% and 34.2% and 4.84% and 50.92% and 41.57% and 2.07% and 30.8% and 55.7% and 4.81%
same,HX103(+) (%),[1]; [3],47.95% and 53.5% and 30.41% and 49.49% and 61.89% and 48.6% and 51.54% and 13.72% and 92.61% and 50.98% and 11.82% and 76% and 77.45% and 45.5% and 12.06%
same,EGFR(+) HX103 (+) (%) AVE,[1]; [4],3.4875%
same,HX103 (+) (%) AVE,[1]; [4],10.0231%
same,EGFR(+) HX103 (+) (%),[1]; [5],2.605% and 13.7% and 4.44% and 3.27% and 0.6% and -0.34% and 1.35% and 4.89% and 0.098% and 0.24% and 1.08% and 10.76% and 4.24% and 2.1% and 0.447% and 6.32%
same,HX103(+) (%),[1]; [5],5.005% and 21.85% and 10.96% and 7.41% and 3.16% and -1.81% and 3.59% and 12.92% and 4.005% and 1.16% and 7.12% and 18.43% and 19.52% and 10.47% and 20.56% and 16.02%
same,"mean ratio of EGFR(+)HX103(+), non-responders","[1]; SD or PD, n = 4",9.5 ± 5.6%
same,"mean ratio of HX103(+), non-responders","[1]; SD or PD, n = 4",17.0 ± 4.5%
same,"Fluorescence intensity, L858R",EGFR L858R; wavelength 666 nm,4655.85
same,"Fluorescence intensity, L858R",EGFR L858R; wavelength 669 nm,4299.18
same,"Fluorescence intensity, L858R",EGFR L858R; wavelength 671 nm,3977.08
same,"Fluorescence intensity, L858R",EGFR L858R; wavelength 673 nm,3702.64
same,"Fluorescence intensity, L858R",EGFR L858R; wavelength 676 nm,3456.05
same,"Fluorescence intensity, L858R",EGFR L858R; wavelength 678 nm,3215.71
same,"Fluorescence intensity, L858R",EGFR L858R; wavelength 681 nm,2960.24
same,"Fluorescence intensity, L858R",EGFR L858R; wavelength 683 nm,2683.28
same,"Fluorescence intensity, L858R",EGFR L858R; wavelength 686 nm,2403.9
same,"Fluorescence intensity, L858R",EGFR L858R; wavelength 688 nm,2143.64
same,"Fluorescence intensity, L858R",EGFR L858R; wavelength 690 nm,1924.01
same,"Fluorescence intensity, L858R",EGFR L858R; wavelength 693 nm,1757.52
same,"Fluorescence intensity, L858R",EGFR L858R; wavelength 695 nm,1633.62
same,"Fluorescence intensity, L858R",EGFR L858R; wavelength 698 nm,1538.11
same,"Fluorescence intensity, L858R",EGFR L858R; wavelength 700 nm,1456.78
same,Fluorescence intensity at 570 nm,"EGFR L858R; Fig. 2d, HX103 with EGFR L858R, n=1-3",94.4744 and 115.569 and 99.2784
same,fluorescence turn-on response,"EGFR L858R; HX103 5 µM in PBS buffer (0.1% DMSO), 570 nm",high fluorescence
same,Kd,"EGFR L858R; HX103 5 µM, EGFR 0 to 6 µM in PBS, one-site specific binding model, read-out: apparent binding affinity (Kd)",0.8 ± 0.3 µM
same,Fluorescence response of HX103 to EGFR L858R,"EGFR L858R; EGFR 1 µM, n=1-3",6.4875 and 6.559 and 3.424
same,Fluorescence response of HX103 to EGFR L858R,"EGFR L858R; EGFR 2 µM, n=1-3",8.6 and 6.836 and 4.376
same,Fluorescence response of HX103 to EGFR L858R,"EGFR L858R; EGFR 5 µM, n=1-3",8.998 and 10.1242 and 7.156
